In patent US7491796B1, “Retro-inversion peptides that target GIT receptors and related methods” (Merrion Research III Limited, priority 1998, dated 2009):
pKd: −log10 of the molar value. Where no end group is shown, it is not given here. The star is where a group is joined. Dansyl = CN(C)c1cccc2c(S(=O)(=O)*)cccc12

Test system: Caco-2 cell membrane (P100) fractions
Assay: Binding of dansylated peptides to Caco-2 cell membrane (P100) fractions by ELISA
Conditions: for pKd: Caco-2 P100 fractions, ELISA, read-out: KD (concentration of the peptide required to reach half maximal binding to Caco-2 P100 fractions); for Binding to P100 relative to ZElan021 (arbitrary value 1.00), P100 assay number 4: assay 4; for Binding to P100 relative to ZElan021 (arbitrary value 1.00), P100 assay number 4 / Binding to P100 relative to ZElan021 (arbitrary value 1.00), P100 assay number 5 / Binding to P100 relative to ZElan021 (arbitrary value 1.00), P100 assay number 6 / Binding to P100 relative to ZElan021 (arbitrary value 1.00), P100 assay number 7 / Binding to P100 relative to ZElan021 (arbitrary value 1.00), P100 assay number 8: peptide at 25 μg/ml; for Binding to P100 relative to ZElan021 (arbitrary value 1.00), P100 assay number 5: assay 5; for Binding to P100 relative to ZElan021 (arbitrary value 1.00), P100 assay number 6: assay 6; for Binding to P100 relative to ZElan021 (arbitrary value 1.00), P100 assay number 7: assay 7; for Binding to P100 relative to ZElan021 (arbitrary value 1.00), P100 assay number 8: assay 8
Description: Similar to the methods described in the above-referenced WO 98/51325, Caco-2 cell membrane (P100) and cytosolic (S100) fractions were prepared using a modification of the method described in Kinsella, B. T., O'Mahony, D. J. and G. A. FitzGerald, 1994, J. Biol. Chem. 269(47): 29914-29919. Confluent Caco-2 cell monolayers (grown in 75 cm^2 flasks for up to 1 week at 37° C. and 5% CO2) were washed twice in Dulbecco's PBS (DPBS) and the cells were harvested by centrifugation at 1000 rpm after treatment with 10 mM EDTA-DPBS. The cells were washed 3 times in DPBS and the final cell pellet was resuspended in 3 volumes of ice cold HED buffer (20 mM HEPES (pH 7.67), 1 mM EGTA, 0.5 mM dithiothreitol, 1 mM phenylmethylsulphonyl fluoride (PMSF)). The cells were allowed to swell for 5 min on ice prior to homogenization for 30 sec. The homogenates were centrifuged at 40,000 rpm for 45 min at 4° C. The supernatant (S100) was removed and the pellet (P100) was resuspended in HEDG buffer (20 mM HEPES (pH 7.67), 1 mM EGTA, 0.5 mM dithiothreitol, 100 mM NaCl, 10% glycerol, 1 mM PMSF). Protein concentrations were determined using the Bradford assay (Bradford, M. M., 1976, Anal. Biochem. 72: 248-254).
Binding of peptides to membrane (P100) was assessed by detection of the dansyl moiety incorporated in the peptide. Costar ninety six well ELISA plates were coated with P100 fractions (100 μg/ml in 0.05 M NaHCO3 (pH 9.6); 100 μl/well) overnight at 4° C. The plates were blocked with 2% Marvel-DPBS for 1 h at room temperature and washed 3 times in 1% DPBS-Tween. Peptides (200 μg/ml in 2% Marvel-DPBS) were serially diluted on the plates and incubated for 1 h at room temperature. The plates were washed 5 times and the dansylated peptides were detected using i) mouse anti-dansyl antiserum (Cytogen DB3-226.3; 1:1340 dilution in 2% Marvel-DPBS) or ii) rabbit anti-dansyl antiserum (La Jolla Diagnostics LAJD-119; 1:1000 dilutions) for 1 h at room temperature. The plates were washed 3 times prior to incubation with i) goat anti-mouse IgGλ:HRP antibody (Southern Biotechnology 1060-05; 1:10,000 dilution in 2% Marvel-DPBS) or ii) anti-rabbit IgG HRP (Sigma A-0545, 1:8,000) for 1 h at room temperature. After 3 washes, reactions were visualized using K Blue Substrate and Red Stop Solution (Neogen Co. 300176 & 301475, respectively) at 650 nm.
ZElan021, full length HAX42 [K(dns)-[…]] (SEQ ID NO:53; dansylated version is SEQ ID NO:8) was given the arbitrary value of 1.00 for binding to P100 at a given peptide concentration determined from the signal-to-noise ratio data. […] Assay number 1 was at 20 μg/ml; 2 and 3 were at 50 μg/ml; and 4 through 8 were at 25 μg/ml.
KD values, or the concentration of the peptide required to reach half maximal binding to Caco-2 P100 fractions, are given in Table 3 for ZElan021, full length HAX42, [K(dns)-[…]] (SEQ ID NO:53; dansylated version is SEQ ID NO:8), HAX42 fragment ZElan091, and the retro-inverted form of this fragment, ZElan146 as well as for ZElan018, full length PAX2, [K(dns)-STPPSREAYSRPYSVDS […]] (SEQ ID NO:7; dansylated version is SEQ ID NO:15), PAX2 fragment ZElan129, and the retro-inverted form of this fragment, ZELan144.

Substance: K(dns)-PGDYNCCGNGNSTG [ZElan091]
- pKd: 6.12
- Binding to P100 relative to ZElan021 (arbitrary value 1.00), P100 assay number 4: 2.02
- Binding to P100 relative to ZElan021 (arbitrary value 1.00), P100 assay number 5: 1.37
- Binding to P100 relative to ZElan021 (arbitrary value 1.00), P100 assay number 6: 1.20
- Binding to P100 relative to ZElan021 (arbitrary value 1.00), P100 assay number 7: 0.85

Substance: K(dns)-SDHALGTNLRSDNAKEPGDYNCCGNGNSTGRKVFNRRRPSAIPT (K(Dansyl)SDHALGTNLRSDNAKEPGDYNCCGNGNSTGRKVFNRRRPSAIPT; cysteine pairing not given here) [ZElan021, dansylated full length HAX42]
- pKd: 5.17
- Binding to P100 relative to ZElan021 (arbitrary value 1.00), P100 assay number 1 (assay 1, peptide at 20 μg/ml): 1.00
- Binding to P100 relative to ZElan021 (arbitrary value 1.00), P100 assay number 2 (assay 2, peptide at 50 μg/ml): 1.00
- Binding to P100 relative to ZElan021 (arbitrary value 1.00), P100 assay number 3 (assay 3, peptide at 50 μg/ml): 1.00
- Binding to P100 relative to ZElan021 (arbitrary value 1.00), P100 assay number 4: 1.00
- Binding to P100 relative to ZElan021 (arbitrary value 1.00), P100 assay number 5: 1.00
- Binding to P100 relative to ZElan021 (arbitrary value 1.00), P100 assay number 6: 1.00
- Binding to P100 relative to ZElan021 (arbitrary value 1.00), P100 assay number 7: 1.14
- Binding to P100 relative to ZElan021 (arbitrary value 1.00), P100 assay number 8: 0.94

Substance: K(dns)-gtsngngccnydgp [ZElan146]
- pKd: 4.66
- Binding to P100 relative to ZElan021 (arbitrary value 1.00), P100 assay number 7: 0.36
- Binding to P100 relative to ZElan021 (arbitrary value 1.00), P100 assay number 8: 0.72

Substance: K(dns)-rtrlrrnhsshkant [ZElan144]
- pKd: 4.54

Substance: K(dns)-TNAKHSSHNRRLRTR (K(Dansyl)TNAKHSSHNRRLRTR) [ZElan129, dansylated PAX2 15 mer fragment]
- pKd: 4.53

Substance: K(dns)-STPPSREAYSRPYSVDS DSDTNAKHSSHNRRLRTRSRPNG (K(Dansyl)STPPSREAYSRPYSVDSDSDTNAKHSSHNRRLRTRSRPNG) [ZElan018, dansylated full length PAX2]
- pKd: < 4.30
